Like-named read-outs stand apart in the source and are kept apart here.
Assays:
[1] = cited from earlier work
[2] = cited from earlier work; for P/N (DILI positive / DILI negative): P = DILI severity categories 1, 2 and 3, N = categories 4 and 5; for DILI category: clinical, from literature and product labels
[3] = ref Chen et al 2016 / Chen et al 2011; cited from earlier work
[4] = Clinical DILI severity categorization and DILI pattern; settings: P = DILI severity categories 1, 2 and 3; N = categories 4 and 5
[5] = system: primary human hepatocytes (PHH); experiment: Cytotoxicity (cellular ATP, CellTiter-Glo) in 2D plated primary human hepatocytes, 48 h treatment; type: cell-based; settings: for IC50: Hepatocyte, read-out: Geomean IC50;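 for all read-outs here: 384-well plates, luminescence read-out, normalized to vehicle wells with 1% DMSO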
Method: Cryopreserved PHH (lot IZT) were thawed in InVitroGro HT™ thawing media at 37 °C, pelleted, and resuspended. Viable hepatocytes were counted by Trypan blue exclusion and plated in black-walled, BioCoat™ collagen 384-well plates at 13,000 cells/well in InVitroGro CP™ plating media supplemented with 1% Torpedo™ Antibiotic Mix and 5% fetal bovine serum and incubated overnight for 18 h. Cells were then treated with compounds for 48 h diluted in InVitroGro HI™ incubation media containing 1% Torpedo Antibiotic Mix, 10% fetal bovine serum, and 1% DMSO. […] Luminescence was determined on an EnVision™ Muliplate Reader (PerkinElmer, Waltham, MA, USA), and data were normalized to vehicle (1% DMSO) control wells.

[6] = system: 3D human liver microtissues (hLiMT); experiment: Cytotoxicity (cellular ATP, CellTiter-Glo 2.0) in 3D human liver microtissues, 14 day repeat-dose treatment; settings: for IC50: Homo sapiens, 336 h; for classification at 50× MOS threshold: hLiMT 14 days
[7] = system: 3D human liver microtissues (hLiMT); experiment: Cytotoxicity (cellular ATP) in 3D human liver microtissues, 5-6 days treatment; type: cell-based; settings: Homo sapiens; hLiMT, 5/6 days, ATP content; read-out: IC50 SHORT;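 note: Hanging-drop spheroids, seven-point dilution series, re-dosed on day 3, CellTiter-Glo 2.0 luminescence, normalized to 0.5 or 1% DMSO vehicle controls on the same plate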
[8] = human Cmax total, used for IC50/Cmax
[9] = human total plasma Cmax, ref literature values
[10] = Table 1, ref Garside et al. (2014)
[11] = clinical DILI severity category, 1-5
[12] = 2D primary human hepatocytes (lot IZT), 48 h treatment, total cellular ATP content
[13] = Hepatocyte, read-out: Geomean IC50 [µM]
[14] = table S-5, ref Garside et al. 2014
[15] = table S-4, ref Garside et al. 2014

Structure (SMILES) | Cmax [1, 8] | Cmax [1, 9] | P/N (DILI positive / DILI negative) [2] | DILI severity category [2, 10] | DILI severity category [2, 11] | DILI category ([2]; ref Garside et al. 2014) | LTKB DILI classification [3] | P/N (DILI positive / DILI negative) [4] | IC50 [5, 12] | IC50 [6, 13] | classification at 50× MOS threshold ([5]; PHH 48 h) | FDA DILI Classification DILI severity score [3] | classification at 50× MOS threshold [6] | IC50 ([5]; Homo sapiens, 48 h) | DILI severity category [2, 14] | IC50 [7] | DILI severity category [2, 15] | change of IC50 with prolonged exposure ([6]; hLiMT 14 days versus 5-6 days) | IC50 ([6]; read-out: IC50 LONG)
CC(C)(C)NCC(O)c1ccc(O)c(CO)c1 (stereo not shown) [Albuterol] | 80 nM | 80 nM | N | 5: No DILI (N = 25) | 5. No DILI | 5. No DILI | no DILI concern | N | – | – | – | – | – | – | – | – | – | – | –
NC(CO)C(=O)NNCc1ccc(O)c(O)c1O (stereo not shown) [Benserazide] | 3890 nM | 3890 nM | N | 5: No DILI (N = 25) | 5. No DILI | 5. No DILI | – | N | > 500 µM | > 62.5 µM | – | – | – | – | – | – | – | – | –
CN1[C@@H]2CC[C@H]1C[C@@H](OC(c1ccccc1)c1ccccc1)C2 [Benztropine] | 585 nM | 590 nM | N | 5: No DILI (N = 25) | 5. No DILI | 5. No DILI | no DILI concern | N | – | – | false positive | 0 | false positive | – | – | – | – | – | –
CCCCNc1cc(C(=O)O)cc(S(N)(=O)=O)c1Oc1ccccc1 [Bumetanide] | 84.8 nM | 84.8 nM | N | 4: Enzyme elevations in clinic (N = 16) | 4. Enzyme Elevations in Clinic | 4. Enzyme Elevations in Clinic | Ambiguous DILI concern | N | > 10 µM | > 10 µM | – | 3 | – | – | – | – | – | – | –
O=C1CC2(CCCC2)CC(=O)N1CCCCN1CCN(c2ncccn2)CC1 [Buspirone] | 10 nM | 10 nM | N | 4: Enzyme elevations in clinic (N = 16) | 4. Enzyme Elevations in Clinic | 4. Enzyme Elevations in Clinic | – | N | > 200 µM | 163 µM | – | – | not | – | – | – | – | – | –
[H]/N=C(/N)c1ccc(NCc2nc3cc(C(=O)N(CCC(=O)O)c4ccccn4)ccc3n2C)cc1 [Dabigatran] | 370 nM | 370 nM | N | 4: Enzyme elevations in clinic (N = 16) | 4. Enzyme Elevations in Clinic | 4. Enzyme Elevations in Clinic | – | N | – | > 50 µM | – | – | – | > 25 µM | – | – | – | – | –
C[C@@H]1C[C@H]2[C@@H]3CCC4=CC(=O)C=C[C@]4(C)[C@@]3(F)[C@@H](O)C[C@]2(C)[C@@]1(O)C(=O)CO [Dexamethasone] | 220 nM | 220 nM | N | 4: Enzyme elevations in clinic (N = 16) | 4. Enzyme Elevations in Clinic | 4. Enzyme Elevations in Clinic | Ambiguous DILI concern | N | > 100 µM | > 100 µM | – | 3 | – | – | 4. Enzyme Elevations in Clinic | – | – | – | –
CC(C)C(=O)Nc1ccc([N+](=O)[O-])c(C(F)(F)F)c1 [Flutamide] | 5400 nM | 5430 nM | – | 1: Severe clinical DILI (N = 23) | 1. Severe Clinical DILI | 1. Severe Clinical DILI | most DILI concern | – | 73 µM | 25.7 µM | – | 8 | – | – | – | 12.5 µM | 1 | higher IC50 value | –
O=C(NC1CCN(CCc2c[nH]c3ccccc23)CC1)c1ccccc1 [Indoramin] | 290 nM | 290 nM | N | 5: No DILI (N = 25) | 5. No DILI | 5. No DILI | – | N | > 50 µM | > 50 µM | – | – | – | – | – | – | – | – | –
CC(=O)N1CCN(c2ccc(OCC3COC(Cn4ccnc4)(c4ccc(Cl)cc4Cl)O3)cc2)CC1 (stereo not shown) [Ketoconazole] | 11300 nM | 11300 nM | – | 1: Severe clinical DILI (N = 23) | 1. Severe Clinical DILI | 1. Severe Clinical DILI | most DILI concern | – | 47.2 µM | 4.6 µM | – | 8 | – | – | – | 8.5 µM | 1 | – | –
CN(C)C(=N)N=C(N)N [Metformin] | 7740 nM | 7740 nM | – | 3: Low clinical DILI concern (N = 23) | 3. Low Clinical DILI Concern | 3. Low Clinical DILI Concern | less DILI concern | – | > 100 µM | > 100 µM | – | 0 | – | – | – | 100 µM | 3 | – | –
CN(Cc1cnc2nc(N)nc(N)c2n1)c1ccc(C(=O)N[C@@H](CCC(=O)O)C(=O)O)cc1 [Methotrexate] | 5000 nM | 5000 nM | – | 1: Severe clinical DILI (N = 23) | 1. Severe Clinical DILI | 1. Severe Clinical DILI | most DILI concern | – | > 100 µM | > 100 µM | – | 3 | – | – | – | 100 µM | 1 | – | –
CN(C)C(=O)Oc1cccc([N+](C)(C)C)c1 [Neostigmine] | 45 nM | 44.8 nM | N | 5: No DILI (N = 25) | 5. No DILI | 5. No DILI | – | N | > 10 µM | > 10 µM | – | – | – | – | – | – | – | – | –
Cc1ccccc1C(OCCN(C)C)c1ccccc1 (stereo not shown) [Orphenadrine] | 740 nM | 740 nM | N | 5: No DILI (N = 25) | 5. No DILI | 5. No DILI | no DILI concern | N | – | – | – | 0 | – | – | 5. No DILI | – | – | – | –
C#CCN(C)Cc1ccccc1 [Pargyline] | 1000 nM | 1000 nM | N | 4: Enzyme elevations in clinic (N = 16) | 4. Enzyme Elevations in Clinic | 4. Enzyme Elevations in Clinic | – | N | > 100 µM | > 100 µM | – | – | – | – | 4. Enzyme Elevations in Clinic | – | – | – | –
Fc1ccc([C@@H]2CCNC[C@H]2COc2ccc3c(c2)OCO3)cc1 [Paroxetine] | 200 nM | 200 nM | – | 2: High clinical DILI concern (N = 23) | 2. High Clinical DILI Concern | 2. High Clinical DILI Concern | less DILI concern | – | 15.3 µM | 12 µM | – | 8 | – | – | – | 21.3 µM | 2 | – | –
CN[C@@H]1[C@H](O)[C@H](NC)[C@H]2O[C@@]3(O)C(=O)C[C@@H](C)O[C@H]3O[C@@H]2[C@H]1O [Spectinomycin] | 323000 nM | 323000 nM | – | 3: Low clinical DILI concern (N = 23) | 3. Low Clinical DILI Concern | 3. Low Clinical DILI Concern | Ambiguous DILI concern | – | > 100 µM | > 100 µM | – | 3 | – | – | – | 100 µM | 3 | – | –
CC1=C(/C=C/C(C)=C/C=C/C(C)=C/C(=O)O)C(C)(C)CCC1 [Tretinoin] | 1330 nM | 1330 nM | – | 3: Low clinical DILI concern (N = 23) | 3. Low Clinical DILI Concern | 3. Low Clinical DILI Concern | Ambiguous DILI concern | – | > 100 µM | > 17 µM | – | 3 | – | – | – | 29.2 µM | 3 | – | 17 µM
Cc1cc(CC(=O)O)n(C)c1C(=O)c1ccc(Cl)cc1 [Zomepirac] | 13700 nM | 13700 nM | N | 5: No DILI (N = 25) | 5. No DILI | 5. No DILI | – | N | > 1000 µM | > 1000 µM | – | – | – | – | – | – | – | – | –
